The results in this text go back to publication PMC3601784 (Chromatographia, 2012).

Data set [1] can be described thus: Solubility of PHOME in assay buffer. Format: physicochemical. Particulars: BIS–TRIS buffer with 0.1 g/L Tween 80, in the superloop.
Another data set concerns the target T1, Human recombinant sEH (Homo sapiens, UniProt P34913).
T1 sequence (P34913 1-555): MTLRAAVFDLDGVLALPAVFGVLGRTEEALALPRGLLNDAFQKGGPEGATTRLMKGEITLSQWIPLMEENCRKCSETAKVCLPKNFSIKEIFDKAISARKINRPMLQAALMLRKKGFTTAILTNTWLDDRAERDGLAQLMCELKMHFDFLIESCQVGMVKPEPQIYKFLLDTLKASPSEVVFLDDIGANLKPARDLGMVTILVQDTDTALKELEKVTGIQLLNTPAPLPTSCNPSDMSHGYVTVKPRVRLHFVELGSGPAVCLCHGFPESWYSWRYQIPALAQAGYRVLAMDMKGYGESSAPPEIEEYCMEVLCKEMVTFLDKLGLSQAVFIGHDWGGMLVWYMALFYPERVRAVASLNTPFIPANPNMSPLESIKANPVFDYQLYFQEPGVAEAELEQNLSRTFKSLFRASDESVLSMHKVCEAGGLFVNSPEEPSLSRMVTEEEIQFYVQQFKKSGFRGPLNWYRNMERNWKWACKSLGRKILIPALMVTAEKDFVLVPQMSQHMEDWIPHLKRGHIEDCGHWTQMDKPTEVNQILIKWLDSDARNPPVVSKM
Put plainly: LC-BCD/MS. Type of data set: biochemical. Particulars: mixture of sEHi 6, sEHi 1, sEHi 7, diclofenac and phenylbutazone separated by LC.

Compound `COc1ccc2cc(C(C#N)OC(=O)CC3OC3c3ccccc3)ccc2c1` (centres unmarked) [PHOME, (3-phenyl-oxiranyl)-acetic acid cyano-(6-methoxy-naphthalen-2-yl)-methyl ester] gave a limit of solubility in data set [1] of roughly 30 µM.

As to `CCCCC1C(=O)N(c2ccccc2)N(c2ccccc2)C1=O` [phenylbutazone], the “sEH activity (BCD peak) in a standard mixture” value on Human recombinant sEH is “without sEH activity”.
